Experimental data published in ChEMBL document CHEMBL1201861, “Genomics of Drug Sensitity in Cancer screening data, Wellcome Trust Sanger Institute”.

Legend:
Test in all cases: cells
Format in all cases: functional, cell-based
Conditions in all cases: Homo sapiens
[1] = system: COLO-741
Description: SANGER: Inhibition of human COLO-741 cell growth in a cell viability assay.

[2] = system: Calu-3;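 also: growth inhibition of human Calu-3 cells, determined with a cell viability assay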
Description: SANGER: Inhibition of human Calu-3 cell growth in a cell viability assay.

[3] = system: GAMG;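 also: cell growth inhibition measured by a viability assay in the GAMG human cell line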
Description: SANGER: Inhibition of human GAMG cell growth in a cell viability assay.

[4] = system: H4
Description: SANGER: Inhibition of human H4 cell growth in a cell viability assay.

[5] = system: HCC1806;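 also: growth inhibition of the cancer cell line, determined with a cell viability assay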
Description: SANGER: Inhibition of human HCC1806 cell growth in a cell viability assay.

[6] = system: HCC1937;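 also: growth inhibition measured with a cell viability read-out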
Description: SANGER: Inhibition of human HCC1937 cell growth in a cell viability assay.

[7] = system: HGC-27;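 also: growth inhibition of human HGC-27 cells, read out in a cell viability assay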
Description: SANGER: Inhibition of human HGC-27 cell growth in a cell viability assay.

[8] = system: HO-1-N-1;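 also: growth inhibition of human HO-1-N-1 cells, read out with a cell viability assay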
Description: SANGER: Inhibition of human HO-1-N-1 cell growth in a cell viability assay.

[9] = system: KU-19-19
Description: SANGER: Inhibition of human KU-19-19 cell growth in a cell viability assay.

[10] = system: KYSE-150 cell line;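 also: growth inhibition of human KYSE-150 cells, read out with a cell viability assay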
Description: SANGER: Inhibition of human KYSE-150 cell growth in a cell viability assay.

[11] = system: KYSE-510;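 also: cell viability readout used to measure how strongly growth of the cell line is suppressed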
Description: SANGER: Inhibition of human KYSE-510 cell growth in a cell viability assay.

[12] = system: LCLC-97TM1;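 also: cell viability assay measuring growth inhibition of human LCLC-97TM1 cells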
Description: SANGER: Inhibition of human LCLC-97TM1 cell growth in a cell viability assay.

[13] = system: LN-405
Description: SANGER: Inhibition of human LN-405 cell growth in a cell viability assay.

[14] = system: MDA-MB-231
Description: SANGER: Inhibition of human MDA-MB-231 cell growth in a cell viability assay.

[15] = system: MDA-MB-453
Description: SANGER: Inhibition of human MDA-MB-453 cell growth in a cell viability assay.

[16] = system: MKN-7;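 also: growth inhibition of MKN-7 cells, read out with a cell viability assay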
Description: SANGER: Inhibition of human MKN7 cell growth in a cell viability assay.

[17] = system: NB12;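 also: growth inhibition of human NB12 cells, read out by a cell viability assay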
Description: SANGER: Inhibition of human NB12 cell growth in a cell viability assay.

[18] = system: NCI-H1437;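 also: growth inhibition of human NCI-H1437 cells, read out by a cell viability assay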
Description: SANGER: Inhibition of human NCI-H1437 cell growth in a cell viability assay.

[19] = system: NCI-H1623;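 also: cell viability assay used as the read-out for growth inhibition of NCI-H1623 cells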
Description: SANGER: Inhibition of human NCI-H1623 cell growth in a cell viability assay.

[20] = system: NCI-H1693;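 also: growth inhibition of the human cell line, read out with a cell viability assay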
Description: SANGER: Inhibition of human NCI-H1693 cell growth in a cell viability assay.

[21] = system: NCI-H2452;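 also: growth inhibition of NCI-H2452 cells, read out with a cell viability assay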
Description: SANGER: Inhibition of human NCI-H2452 cell growth in a cell viability assay.

[22] = system: NCI-H292;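 also: growth inhibition of NCI-H292 cells, read out with a cell viability assay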
Description: SANGER: Inhibition of human NCI-H292 cell growth in a cell viability assay.

[23] = system: NCI-H520;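 also: growth inhibition of NCI-H520 cells, measured by a cell viability assay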
Description: SANGER: Inhibition of human NCI-H520 cell growth in a cell viability assay.

[24] = system: NCI-H661;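 also: cell viability assay read-out, IC50 being the concentration that inhibits growth of the cells by half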
Description: SANGER: Inhibition of human NCI-H661 cell growth in a cell viability assay.

[25] = system: NCI-H727;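 also: growth inhibition of human NCI-H727 cells, read out with a cell viability assay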
Description: SANGER: Inhibition of human NCI-H727 cell growth in a cell viability assay.

[26] = system: NY
Description: SANGER: Inhibition of human NY cell growth in a cell viability assay.

[27] = system: OE33;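 also: growth inhibition of human OE33 cells, measured by a cell viability assay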
Description: SANGER: Inhibition of human OE33 cell growth in a cell viability assay.

[28] = system: PC-14;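 also: cell viability assay measuring inhibition of PC-14 cell growth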
Description: SANGER: Inhibition of human PC-14 cell growth in a cell viability assay.

[29] = system: PC-3;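 also: cell viability assay measuring growth inhibition of PC-3 cells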
Description: SANGER: Inhibition of human PC-3 cell growth in a cell viability assay.

[30] = system: RCM-1;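 also: growth inhibition of the RCM-1 line, determined with a cell viability readout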
Description: SANGER: Inhibition of human RCM-1 cell growth in a cell viability assay.

[31] = system: RMG-I;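 also: growth inhibition of human RMG-I cells, read out with a cell viability assay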
Description: SANGER: Inhibition of human RMG-I cell growth in a cell viability assay.

[32] = system: RO82-W-1;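 also: growth inhibition of human RO82-W-1 cells, measured with a cell viability assay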
Description: SANGER: Inhibition of human RO82-W-1 cell growth in a cell viability assay.

[33] = system: RVH-421
Description: SANGER: Inhibition of human RVH-421 cell growth in a cell viability assay.

[34] = system: SK-MES-1;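 also: growth inhibition of human SK-MES-1 cells, read out with a cell viability assay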
Description: SANGER: Inhibition of human SK-MES-1 cell growth in a cell viability assay.

[35] = system: SK-OV-3;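 also: growth inhibition of SK-OV-3 human cells, read out with a cell viability assay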
Description: SANGER: Inhibition of human SK-OV-3 cell growth in a cell viability assay.

[36] = system: SW1463;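 also: growth inhibition of SW1463 cells, determined with a cell viability assay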
Description: SANGER: Inhibition of human SW1463 cell growth in a cell viability assay.

[37] = system: T47D;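 also: growth inhibition of human T47D cells, measured with a cell viability assay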
Description: SANGER: Inhibition of human T47D cell growth in a cell viability assay.

[38] = system: A204;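 also: growth inhibition of human A204 cells, read out with a cell viability assay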
Description: SANGER: Inhibition of human A204 cell growth in a cell viability assay.

[39] = system: AN3-CA;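 also: growth inhibition of human AN3-CA cells measured by a cell viability assay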
Description: SANGER: Inhibition of human AN3-CA cell growth in a cell viability assay.

[40] = system: ASPC1;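 also: growth inhibition of AsPC-1 cells, read out with a cell viability assay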
Description: SANGER: Inhibition of human AsPC-1 cell growth in a cell viability assay.

[41] = system: BHY;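 also: cell growth inhibition read out by a viability assay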
Description: SANGER: Inhibition of human BHY cell growth in a cell viability assay.

[42] = system: CAL-120;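 also: cell growth inhibition, read out as cell viability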
Description: SANGER: Inhibition of human CAL-120 cell growth in a cell viability assay.

[43] = system: CAL-51;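 also: human CAL-51 cell line, growth inhibition read out via a cell viability assay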
Description: SANGER: Inhibition of human CAL-51 cell growth in a cell viability assay.

[44] = system: UACC-62;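 also: growth inhibition of human UACC-62 cells, read out by a cell viability assay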
Description: SANGER: Inhibition of human UACC-62 cell growth in a cell viability assay.

[45] = system: YAPC;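 also: growth inhibition of YAPC cells, measured with a cell viability assay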
Description: SANGER: Inhibition of human YAPC cell growth in a cell viability assay.

[46] = system: COLO-679
Description: SANGER: Inhibition of human COLO-679 cell growth in a cell viability assay.

[47] = system: COLO-680N;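 also: cell viability assay used to measure inhibition of COLO-680N cell growth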
Description: SANGER: Inhibition of human COLO-680N cell growth in a cell viability assay.

[48] = system: G-361
[49] = system: J82;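 also: growth inhibition of J82 cells, read out with a cell viability assay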
Description: SANGER: Inhibition of human J82 cell growth in a cell viability assay.

[50] = system: SW13;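 also: IC50 is inhibition of SW13 cell growth, read out with a cell viability assay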
Description: SANGER: Inhibition of human SW13 cell growth in a cell viability assay.

CC(=O)c1c(C)c2cnc(Nc3ccc(N4CCNCC4)cn3)nc2n(C2CCCC2)c1=O [PALBOCICLIB]
IC50 [1]: 1320 nM | IC50 [2]: > 4000 nM | IC50 [3]: 2590 nM | IC50 [4]: 1730 nM | IC50 [5]: > 4000 nM | IC50 [6]: > 4000 nM | IC50 [7]: 565 nM | IC50 [8]: 963 nM | IC50 [9]: > 4000 nM | IC50 [10]: 1000 nM | IC50 [11]: > 4000 nM | IC50 [12]: > 4000 nM | IC50 [13]: > 4000 nM | IC50 [14]: 3820 nM | IC50 [15]: > 4000 nM | IC50 [16]: > 4000 nM | IC50 [17]: > 4000 nM | IC50 [18]: > 4000 nM | IC50 [19]: > 4000 nM | IC50 [20]: > 4000 nM | IC50 [21]: > 4000 nM | IC50 [22]: 2850 nM | IC50 [23]: 747 nM | IC50 [24]: > 4000 nM | IC50 [25]: > 4000 nM | IC50 [26]: > 4000 nM | IC50 [27]: > 4000 nM | IC50 [28]: > 4000 nM | IC50 [29]: 1350 nM | IC50 [30]: > 4000 nM | IC50 [31]: > 4000 nM | IC50 [32]: 2620 nM | IC50 [33]: > 4000 nM | IC50 [34]: 2620 nM | IC50 [35]: > 4000 nM | IC50 [36]: > 4000 nM | IC50 [37]: 1680 nM | IC50 [38]: 634 nM | IC50 [39]: > 4000 nM | IC50 [40]: 253 nM | IC50 [41]: 1470 nM | IC50 [42]: > 4000 nM | IC50 [43]: 1750 nM | IC50 [44]: > 4000 nM | IC50 [45]: > 4000 nM | IC50 [46]: > 4000 nM | IC50 [47]: > 4000 nM

CC[C@@]1(O)C(=O)OCc2c1cc1n(c2=O)Cc2cc3ccccc3nc2-1 [CAMPTOTHECIN]
IC50 [2]: 32.8 nM | IC50 [48]: > 100 nM | IC50 [3]: 1.53 nM | IC50 [4]: 0.615 nM | IC50 [5]: 3.14 nM | IC50 [7]: 4.07 nM | IC50 [8]: 0.838 nM | IC50 [49]: 4.72 nM | IC50 [9]: 22 nM | IC50 [11]: 6.75 nM | IC50 [12]: 8.14 nM | IC50 [13]: > 100 nM | IC50 [15]: 6.97 nM | IC50 [17]: 44 nM | IC50 [18]: 34.9 nM | IC50 [19]: 0.748 nM | IC50 [20]: 26.7 nM | IC50 [21]: 90.9 nM | IC50 [22]: 2.24 nM | IC50 [24]: 13.6 nM | IC50 [25]: > 100 nM | IC50 [26]: > 100 nM | IC50 [27]: 25.6 nM | IC50 [28]: 13.6 nM | IC50 [29]: 9.75 nM | IC50 [30]: 28.7 nM | IC50 [32]: 14.9 nM | IC50 [33]: 71.5 nM | IC50 [34]: 10.8 nM | IC50 [35]: > 100 nM | IC50 [50]: 2.99 nM | IC50 [36]: 51.7 nM | IC50 [37]: 13.5 nM | IC50 [38]: 4.52 nM | IC50 [39]: 34 nM | IC50 [41]: 5.31 nM | IC50 [42]: > 100 nM | IC50 [43]: 29.7 nM | IC50 [44]: 31 nM | IC50 [45]: 29.6 nM | IC50 [46]: > 100 nM | IC50 [47]: 72.4 nM

Cn1c(=O)n(-c2ccc(C(C)(C)C#N)cc2)c2c3cc(-c4cnc5ccccc5c4)ccc3ncc21 [DACTOLISIB]
IC50 [1]: 1500 nM | IC50 [2]: 72 nM | IC50 [3]: 19.5 nM | IC50 [4]: 12.7 nM | IC50 [5]: 168 nM | IC50 [6]: 187 nM | IC50 [7]: 18.1 nM | IC50 [8]: 25.2 nM | IC50 [49]: 185 nM | IC50 [9]: 31.1 nM | IC50 [10]: 25.9 nM | IC50 [11]: 65.8 nM | IC50 [12]: 82.9 nM | IC50 [13]: 63.9 nM | IC50 [14]: 105 nM | IC50 [15]: > 2000 nM | IC50 [16]: 124 nM | IC50 [17]: 528 nM | IC50 [18]: 80.5 nM | IC50 [19]: 47.8 nM | IC50 [20]: 136 nM | IC50 [21]: 44.6 nM | IC50 [22]: 27 nM | IC50 [23]: 83.1 nM | IC50 [24]: 151 nM | IC50 [25]: 412 nM | IC50 [26]: 1170 nM | IC50 [27]: 189 nM | IC50 [28]: 46.6 nM | IC50 [29]: 5.09 nM | IC50 [30]: 497 nM | IC50 [31]: 468 nM | IC50 [32]: 59.9 nM | IC50 [33]: 53.7 nM | IC50 [34]: 53.3 nM | IC50 [35]: 100 nM | IC50 [50]: 66.5 nM | IC50 [36]: 739 nM | IC50 [37]: 67.9 nM | IC50 [38]: 28.5 nM | IC50 [39]: 5.56 nM | IC50 [40]: 30.2 nM | IC50 [41]: 42.7 nM | IC50 [42]: 34.7 nM | IC50 [43]: 23.9 nM | IC50 [44]: 168 nM | IC50 [45]: 491 nM | IC50 [46]: 122 nM | IC50 [47]: 111 nM
